From the supplement of paper PMC10307832

Assays:
Assay in all cases: relative viability (nuclei count vs DMSO), 5 days (fraction); higher = more cells survive
201T = system: 201T
Method in brief: (§1)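 Lung cancer cell lines, seeded in 1536-well plates, were treated the following day by pin tool with a single drug or with five library-drug doses (not always all listed) in √10 steps on top of a fixed anchor-drug dose. Cells were fixed and nuclei stained in one step after 5 days, and nuclei were counted. Relative viability is the nuclei count for treated wells divided by that for vehicle wells, reported as medians of duplicate plates.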

COR-L23 = system: COR-L23
Method in brief: as §1

EPLC-272H = system: EPLC-272H
Method in brief: as §1

H3255 = system: H3255
Method in brief: as §1

HCC-15 = system: HCC-15
Method in brief: as §1

LOU-NH91 = system: LOU-NH91
Method in brief: as §1

NCI-H1563 = system: NCI-H1563
Method in brief: as §1

NCI-H1650 = system: NCI-H1650
Method in brief: as §1

NCI-H1734 = system: NCI-H1734
Method in brief: as §1

NCI-H1793 = system: NCI-H1793
Method in brief: as §1

NCI-H2023 = system: NCI-H2023
Method in brief: as §1

NCI-H2170 = system: NCI-H2170
Method in brief: as §1

NCI-H2347 = system: NCI-H2347
Method in brief: as §1

NCI-H2405 = system: NCI-H2405
Method in brief: as §1

NCI-H3122 = system: NCI-H3122
Method in brief: as §1

NCI-H322M = system: NCI-H322M
Method in brief: as §1

NCI-H441 = system: NCI-H441
Method in brief: as §1

NCI-H520 = system: NCI-H520
Method in brief: as §1

NCI-H647 = system: NCI-H647
Method in brief: as §1

PC-14 = system: PC-14
Method in brief: as §1

SW 900 = system: SW 900
Method in brief: as §1

UMC-11 = system: UMC-11
Method in brief: as §1

## O=c1cc(N2CCOCC2)oc2c(-c3cccc4c3sc3ccccc34)cccc12 + N=C(N)NC(=N)NCCc1ccccc1 [Phenformin] (partner 250 µM)
201T; first compound 0.01 µM
  relative viability: 0.289
201T; first compound 0.03162 µM
  relative viability: 0.488
201T; first compound 0.1 µM
  relative viability: 0.469
201T; first compound 0.3162 µM
  relative viability: 0.441
201T; first compound 1 µM
  relative viability: 0.43
COR-L23; first compound 0.01 µM
  relative viability: 0.439
COR-L23; first compound 0.03162 µM
  relative viability: 0.466
COR-L23; first compound 0.1 µM
  relative viability: 0.43
COR-L23; first compound 0.3162 µM
  relative viability: 0.411
COR-L23; first compound 1 µM
  relative viability: 0.449
EPLC-272H; first compound 0.01 µM
  relative viability: 0.394
EPLC-272H; first compound 0.03162 µM
  relative viability: 0.316
EPLC-272H; first compound 0.3162 µM
  relative viability: 0.286
EPLC-272H; first compound 1 µM
  relative viability: 0.298
H3255; first compound 0.01 µM
  relative viability: 0.388
H3255; first compound 0.03162 µM
  relative viability: 0.334
H3255; first compound 0.1 µM
  relative viability: 0.328
H3255; first compound 0.3162 µM
  relative viability: 0.368
H3255; first compound 1 µM
  relative viability: 0.35
HCC-15; first compound 0.01 µM
  relative viability: 0.47
HCC-15; first compound 0.03162 µM
  relative viability: 0.481
HCC-15; first compound 0.1 µM
  relative viability: 0.596
HCC-15; first compound 0.3162 µM
  relative viability: 0.481
HCC-15; first compound 1 µM
  relative viability: 0.498
LOU-NH91; first compound 0.01 µM
  relative viability: 0.58
LOU-NH91; first compound 0.03162 µM
  relative viability: 0.688
LOU-NH91; first compound 0.1 µM
  relative viability: 0.689
LOU-NH91; first compound 0.3162 µM
  relative viability: 0.791
LOU-NH91; first compound 1 µM
  relative viability: 0.618
NCI-H1563; first compound 0.01 µM
  relative viability: 0.644
NCI-H1563; first compound 0.03162 µM
  relative viability: 0.733
NCI-H1563; first compound 0.1 µM
  relative viability: 0.635
NCI-H1563; first compound 0.3162 µM
  relative viability: 0.671
NCI-H1563; first compound 1 µM
  relative viability: 0.612
NCI-H1650; first compound 0.01 µM
  relative viability: 0.352
NCI-H1650; first compound 0.03162 µM
  relative viability: 0.48
NCI-H1650; first compound 0.1 µM
  relative viability: 0.346
NCI-H1650; first compound 0.3162 µM
  relative viability: 0.449
NCI-H1650; first compound 1 µM
  relative viability: 0.362
NCI-H1734; first compound 0.01 µM
  relative viability: 0.379
NCI-H1734; first compound 0.03162 µM
  relative viability: 0.379
NCI-H1734; first compound 0.1 µM
  relative viability: 0.403
NCI-H1734; first compound 0.3162 µM
  relative viability: 0.388
NCI-H1734; first compound 1 µM
  relative viability: 0.352
NCI-H1793; first compound 0.01 µM
  relative viability: 0.386
NCI-H1793; first compound 0.1 µM
  relative viability: 0.345
NCI-H1793; first compound 0.3162 µM
  relative viability: 0.375
NCI-H1793; first compound 1 µM
  relative viability: 0.363
NCI-H2023; first compound 0.01 µM
  relative viability: 0.424
NCI-H2023; first compound 0.03162 µM
  relative viability: 0.397
NCI-H2023; first compound 0.1 µM
  relative viability: 0.482
NCI-H2023; first compound 0.3162 µM
  relative viability: 0.425
NCI-H2023; first compound 1 µM
  relative viability: 0.385
NCI-H2170; first compound 0.01 µM
  relative viability: 0.401
NCI-H2170; first compound 0.03162 µM
  relative viability: 0.422
NCI-H2170; first compound 0.1 µM
  relative viability: 0.462
NCI-H2170; first compound 0.3162 µM
  relative viability: 0.384
NCI-H2170; first compound 1 µM
  relative viability: 0.39
NCI-H2347; first compound 0.01 µM
  relative viability: 0.545
NCI-H2347; first compound 0.03162 µM
  relative viability: 0.318
NCI-H2347; first compound 0.1 µM
  relative viability: 0.376
NCI-H2347; first compound 0.3162 µM
  relative viability: 0.419
NCI-H2347; first compound 1 µM
  relative viability: 0.317
NCI-H2405; first compound 0.01 µM
  relative viability: 0.364
NCI-H2405; first compound 0.03162 µM
  relative viability: 0.38
NCI-H2405; first compound 0.1 µM
  relative viability: 0.356
NCI-H2405; first compound 0.3162 µM
  relative viability: 0.424
NCI-H2405; first compound 1 µM
  relative viability: 0.404
NCI-H3122; first compound 0.01 µM
  relative viability: 0.347
NCI-H3122; first compound 0.03162 µM
  relative viability: 0.374
NCI-H3122; first compound 0.1 µM
  relative viability: 0.38
NCI-H3122; first compound 0.3162 µM
  relative viability: 0.36
NCI-H3122; first compound 1 µM
  relative viability: 0.396
NCI-H322M; first compound 0.01 µM
  relative viability: 0.75
NCI-H322M; first compound 0.03162 µM
  relative viability: 0.781
NCI-H322M; first compound 0.1 µM
  relative viability: 0.395
NCI-H322M; first compound 0.3162 µM
  relative viability: 0.814
NCI-H322M; first compound 1 µM
  relative viability: 0.668
NCI-H441; first compound 0.01 µM
  relative viability: 0.862
NCI-H441; first compound 0.03162 µM
  relative viability: 0.805
NCI-H441; first compound 0.1 µM
  relative viability: 0.861
NCI-H441; first compound 0.3162 µM
  relative viability: 0.811
NCI-H441; first compound 1 µM
  relative viability: 0.771
NCI-H520; first compound 0.01 µM
  relative viability: 0.663
NCI-H520; first compound 0.03162 µM
  relative viability: 0.555
NCI-H520; first compound 0.1 µM
  relative viability: 0.547
NCI-H520; first compound 0.3162 µM
  relative viability: 0.672
NCI-H520; first compound 1 µM
  relative viability: 0.644
NCI-H647; first compound 0.01 µM
  relative viability: 0.547
NCI-H647; first compound 0.03162 µM
  relative viability: 0.643
NCI-H647; first compound 0.1 µM
  relative viability: 0.319
NCI-H647; first compound 0.3162 µM
  relative viability: 0.526
NCI-H647; first compound 1 µM
  relative viability: 0.715
PC-14; first compound 0.01 µM
  relative viability: 0.292
PC-14; first compound 0.03162 µM
  relative viability: 0.758
PC-14; first compound 0.1 µM
  relative viability: 0.428
PC-14; first compound 0.3162 µM
  relative viability: 0.902
PC-14; first compound 1 µM
  relative viability: 0.361
SW 900; first compound 0.01 µM
  relative viability: 0.291
SW 900; first compound 0.03162 µM
  relative viability: 0.635
SW 900; first compound 0.1 µM
  relative viability: 0.485
SW 900; first compound 0.3162 µM
  relative viability: 0.551
SW 900; first compound 1 µM
  relative viability: 0.56
UMC-11; first compound 0.01 µM
  relative viability: 0.352
UMC-11; first compound 0.03162 µM
  relative viability: 0.316
UMC-11; first compound 0.1 µM
  relative viability: 0.353
UMC-11; first compound 0.3162 µM
  relative viability: 0.36
UMC-11; first compound 1 µM
  relative viability: 0.336
